Measurements from patent publication US9512075B2 (OKAYAMA UNIVERSITY, priority 2012, dated 2016).
≈ marks a conversion by molar mass, not a printed value. Where two headings read alike, the source gives them in different places.

Columns and labels:
Assay type in all cases: cell-based
[1] = tested on: Clostridium difficile JCM1296 strain; experiment: microbe, parasite or virus in culture; settings: Clostridioides difficile, JCM1296, read-out: MIC Clostridium difficile JCM1296
[2] = tested on: Enterococcus faecalis 5038 strain; experiment: MIC for Enterococcus faecalis 5038 strain; settings: read-out: MIC Enterococcus faecalis 5038
[3] = tested on: Staphylococcus aureus MRSA No. 17 (methicillin-resistant Staphylococcus aureus: MRSA); experiment: MIC for Staphylococcus aureus MRSA No. 17; settings: read-out: MIC Straphyrococcus aureus MRSA No. 17 (MRSA)
[4] = tested on: Clostridium perfringens PB6K strain; experiment: microbe, parasite or virus in culture; settings: Clostridium perfringens, PB6KSTRAIN, read-out: MIC Clostridium perfringens PB6K, PB6K strain; CD medium, 37° C. overnight, 10% CO2-containing anaerobic conditions
[5] = tested on: Escherichia coli K-12 strain; experiment: MIC for Escherichia coli K-12 strain; settings: Escherichia coli, K12STRAIN, read-out: MIC Escherichia coli K12
[6] = tested on: Escherichia coli BE1121 strain; experiment: MIC for Escherichia coli BE1121 strain; settings: Escherichia coli, BE1121STRAIN, read-out: MIC Escherichia coli BE1121
[7] = tested on: Enterococcus faecalis NCTC12201 strain (vancomycin-resistant Enterococcus: VRE); experiment: MIC for Enterococcus faecalis NCTC12201 strain (VRE); settings: read-out: MIC Enterococcus faecalis NCTC 12201 (VRE)
[8] = tested on: Staphylococcus aureus Smith strain; experiment: MIC for Staphylococcus aureus Smith strain; settings: read-out: MIC Straphyrococcus aureus Smith
[9] = tested on: Staphylococcus aureus 209P strain; experiment: MIC for Staphylococcus aureus 209P strain; settings: Staphylococcus aureus, read-out: MIC Straphyrococcus aureus 209P
[10] = 5038 strain, Heart Infusion Broth medium, 37° C. overnight, turbidity
[11] = MRSA No. 17, regular bouillon medium, 37° C. overnight, turbidity
[12] = K-12 strain, regular bouillon medium, 37° C. overnight, turbidity
[13] = BE1121 strain, regular bouillon medium, 37° C. overnight, turbidity
[14] = NCTC12201 strain (VRE), Heart Infusion Broth medium, 37° C. overnight, turbidity
[15] = Smith strain, regular bouillon medium, 37° C. overnight, turbidity
[16] = 209P strain, regular bouillon medium, 37° C. overnight, turbidity

Row | Structure (SMILES) | MIC [1] | MIC [2, 10] | MIC [3, 11] | MIC [4] | MIC [5, 12] | MIC [6, 13] | MIC [7, 14] | MIC [8, 15] | MIC [9, 16] | MIC ([2]; 5038STRAIN) | MIC [7] | MIC [8] | MIC ([3]; MRSA) | MIC [5] | MIC [6] | MIC ([9]; 209P)
1 | CCCCC1CCC(C(O)=C2C(=O)N(C(=O)OC(C)(C)C)c3ccccc32)CC1 (stereo not drawn) [A008, N-Boc-3-(4-butylcyclohexylcarbonyl)-2-oxyindole] | 1 µg/mL (≈ 2.5 µM) | 128 µg/mL (≈ 320 µM) | 256 µg/mL (≈ 641 µM) | 2 µg/mL (≈ 5.01 µM) | 128 µg/mL (≈ 320 µM) | 128 µg/mL (≈ 320 µM) | 128 µg/mL (≈ 320 µM) | 128 µg/mL (≈ 320 µM) | 64 µg/mL (≈ 160 µM) |  |  |  |  |  |  | 
2 | CCCCCCCCCCOCC(O)=C1C(=O)N(C(C)=O)c2cc(Cl)ccc21 [A017, N-acetyl-3-decyloxyacetyl-6-chloro-2-oxyindole] | < 0.125 µg/mL |  | 16 µg/mL (≈ 39.2 µM) | < 0.125 µg/mL | 128 µg/mL (≈ 314 µM) | 128 µg/mL (≈ 314 µM) |  |  | 128 µg/mL (≈ 314 µM) | < 0.125 µg/mL | < 0.125 µg/mL | < 0.125 µg/mL |  |  |  | 
3 | CCCCCCCCCCOC(C)C(O)=C1C(=O)N(C(=O)Nc2ccccc2)c2ccccc21 (stereo not drawn) [A021, N-(phenylaminocarbonyl)-3-(2-decyloxypropionyl)-2-oxyindole] | 1 µg/mL (≈ 2.15 µM) | 0.5 µg/mL (≈ 1.08 µM) | 256 µg/mL (≈ 551 µM) | 2 µg/mL (≈ 4.3 µM) | 256 µg/mL (≈ 551 µM) | 256 µg/mL (≈ 551 µM) | 0.5 µg/mL (≈ 1.08 µM) | 0.5 µg/mL (≈ 1.08 µM) | 128 µg/mL (≈ 276 µM) |  |  |  |  |  |  | 
4 | CCCCC1CCC(C(O)=C2C(=O)N(C(=O)Nc3ccc(Br)cc3)c3ccccc32)CC1 (stereo not drawn) [A040, N-(4-bromophenylaminocarbonyl)-3-(4-butylcyclohexylcarbonyl)-2-oxyindole] | 8 µg/mL (≈ 16.1 µM) | 1 µg/mL (≈ 2.01 µM) | 128 µg/mL (≈ 257 µM) | 4 µg/mL (≈ 8.04 µM) | 256 µg/mL (≈ 515 µM) | 256 µg/mL (≈ 515 µM) | 1 µg/mL (≈ 2.01 µM) | 2 µg/mL (≈ 4.02 µM) | 128 µg/mL (≈ 257 µM) |  |  |  |  |  |  | 
5 | CCCCCCCCCC(=O)NCC(O)=C1C(=O)N(C(=O)OC(C)(C)C)c2ccccc21 [A011, N-Boc-3-decanoylaminoacetyl-2-oxyindole] | 2 µg/mL (≈ 4.5 µM) | 256 µg/mL (≈ 576 µM) | 256 µg/mL (≈ 576 µM) | 2 µg/mL (≈ 4.5 µM) | 128 µg/mL (≈ 288 µM) | 128 µg/mL (≈ 288 µM) | 256 µg/mL (≈ 576 µM) | 128 µg/mL (≈ 288 µM) | 256 µg/mL (≈ 576 µM) |  |  |  |  |  |  | 
6 | CCCCCCCCCC(O)=C1C(=O)N(C(=O)Nc2ccc(OC)cc2)c2ccc(F)cc21 [A048, N-(4-methoxyphenylaminocarbonyl)-3-decanoyl-5-fluoro-2-oxyindole] | 32 µg/mL (≈ 70.4 µM) | 128 µg/mL (≈ 282 µM) |  | 256 µg/mL (≈ 563 µM) | 256 µg/mL (≈ 563 µM) | 256 µg/mL (≈ 563 µM) |  |  | 256 µg/mL (≈ 563 µM) |  | 256 µg/mL (≈ 563 µM) | 256 µg/mL (≈ 563 µM) | 256 µg/mL (≈ 563 µM) |  |  | 
7 | CCCCCCCCCCOCC(=O)c1c(O)c2cc(C)ccc2oc1=O [B029, 3-decyloxyacetyl-6-methyl-4-hydroxycoumarin] | < 0.125 µg/mL | 8 µg/mL (≈ 21.4 µM) | 256 µg/mL (≈ 684 µM) | < 0.125 µg/mL | 256 µg/mL (≈ 684 µM) | 256 µg/mL (≈ 684 µM) | 2 µg/mL (≈ 5.34 µM) | 4 µg/mL (≈ 10.7 µM) | 256 µg/mL (≈ 684 µM) |  |  |  |  |  |  | 
8 | CCCCCCCCCC(O)=C1C(=O)N(C(=O)Nc2ccccc2C(F)(F)F)c2ccccc21 [A054, N-(2-(trifluoromethyl)phenylaminocarbonyl)-3-decanoyl-2-oxyindole] | < 0.125 µg/mL | 1 µg/mL (≈ 2.11 µM) | 2 µg/mL (≈ 4.21 µM) | < 0.125 µg/mL | 256 µg/mL (≈ 539 µM) | 256 µg/mL (≈ 539 µM) | 1 µg/mL (≈ 2.11 µM) | 0.5 µg/mL (≈ 1.05 µM) | 2 µg/mL (≈ 4.21 µM) |  |  |  |  |  |  | 
9 | CCCCC1CCC(C(O)=C2C(=O)N(C(=O)c3ccccc3)c3ccccc32)CC1 (stereo not drawn) [A014, N-benzoyl-3-(4-butylcyclohexylcarbonyl)-2-oxyindole] | 4 µg/mL (≈ 9.91 µM) | 1 µg/mL (≈ 2.48 µM) | 4 µg/mL (≈ 9.91 µM) | 8 µg/mL (≈ 19.8 µM) | 128 µg/mL (≈ 317 µM) | 128 µg/mL (≈ 317 µM) | 0.5 µg/mL (≈ 1.24 µM) | 1 µg/mL (≈ 2.48 µM) | 2 µg/mL (≈ 4.96 µM) |  |  |  |  |  |  | 
10 | CCCCCCCCCCOC(C)C(O)=C1C(=O)N(C(=O)NCCCC)c2ccccc21 (stereo not drawn) [A020, N-(butylaminocarbonyl)-3-(2-decyloxypropionyl)-2-oxyindole] | 0.5 µg/mL (≈ 1.12 µM) | 0.5 µg/mL (≈ 1.12 µM) | 256 µg/mL (≈ 576 µM) | 4 µg/mL (≈ 9 µM) | 256 µg/mL (≈ 576 µM) | 256 µg/mL (≈ 576 µM) | 1 µg/mL (≈ 2.25 µM) | 1 µg/mL (≈ 2.25 µM) | 256 µg/mL (≈ 576 µM) |  |  |  |  |  |  | 
11 | CCCCCCCCCC(O)=C1C(=O)N(C(=O)Nc2ccccc2)c2ccc(F)cc21 [A044, N-(phenylaminocarbonyl)-3-decanoyl-5-fluoro-2-oxyindole] | < 0.125 µg/mL | 1 µg/mL (≈ 2.36 µM) | 256 µg/mL (≈ 603 µM) | < 0.125 µg/mL | 256 µg/mL (≈ 603 µM) | 256 µg/mL (≈ 603 µM) | 0.5 µg/mL (≈ 1.18 µM) | 0.25 µg/mL (≈ 0.589 µM) | 256 µg/mL (≈ 603 µM) |  |  |  |  |  |  | 
12 | CCCCCCCCCC(O)=C1C(=O)Nc2ccc(F)cc21 [A004, 3-decanoyl-5-fluoro-2-oxyindole] | 2 µg/mL (≈ 6.55 µM) | 16 µg/mL (≈ 52.4 µM) | 32 µg/mL (≈ 105 µM) | 8 µg/mL (≈ 26.2 µM) |  |  | 15 µg/mL (≈ 49.1 µM) | 16 µg/mL (≈ 52.4 µM) |  |  |  |  |  | 128 µg/mL (≈ 419 µM) | 128 µg/mL (≈ 419 µM) | 16 µg/mL (≈ 52.4 µM)
13 | CCCCCCCCCCOC(C)C(O)=C1C(=O)N(C(C)=O)c2ccccc21 (stereo not drawn) [A018, N-acetyl-3-(2-decyloxypropionyl)-2-oxyindole] | 256 µg/mL (≈ 661 µM) | 0.5 µg/mL (≈ 1.29 µM) | 8 µg/mL (≈ 20.6 µM) | 256 µg/mL (≈ 661 µM) |  |  | 0.5 µg/mL (≈ 1.29 µM) | 0.5 µg/mL (≈ 1.29 µM) |  |  |  |  |  | 256 µg/mL (≈ 661 µM) | < 0.125 µg/mL | 64 µg/mL (≈ 165 µM)
14 | CCCCCCCCNC(=O)c1c(O)c2cc(F)ccc2oc1=O [B022, 6-fluoro-3-(octylaminocarbonyl)-4-hydroxycoumarin] | 16 µg/mL (≈ 47.7 µM) | 256 µg/mL (≈ 763 µM) | 256 µg/mL (≈ 763 µM) | 64 µg/mL (≈ 191 µM) | 256 µg/mL (≈ 763 µM) | 128 µg/mL (≈ 382 µM) | 256 µg/mL (≈ 763 µM) | 128 µg/mL (≈ 382 µM) | 128 µg/mL (≈ 382 µM) |  |  |  |  |  |  | 
